System: MV-4-11 cells
Assay: Gene expression microarray analysis (Affymetrix PrimeView) and GSEA
Format: cell-based, human
Design: RFU PODN (11730768_x_at) / Fold change /veh PODN (11730768_x_at) / RFU LINC00158 (11744669_a_at) / Fold change /veh LINC00158 (11744669_a_at) / RFU DUSP10 (11751237_a_at) / Fold change /veh DUSP10 (11751237_a_at) / RFU ID3 (11757404_x_at) / Fold change /veh ID3 (11757404_x_at) / RFU PLEKHG5 (11737974_s_at) / Fold change /veh PLEKHG5 (11737974_s_at) / RFU LRRC4B (11730491_at) / Fold change /veh LRRC4B (11730491_at) / RFU GIMAP4 (11747438_a_at) / Fold change /veh GIMAP4 (11747438_a_at) / RFU KRT8 (11758183_x_at) / Fold change /veh KRT8 (11758183_x_at) / RFU CNN1 (11734310_a_at) / Fold change /veh CNN1 (11734310_a_at) / RFU VPS37D (11726825_at) / Fold change /veh VPS37D (11726825_at) / RFU C10orf10 (11716522_x_at) / Fold change /veh C10orf10 (11716522_x_at) / RFU KIR2DL2 /// KIR2DL4 /// KIR2DL5A /// KIR2DL5B /// KIR2DS1 /// KIR2DS2 /// KIR2DS3 /// KIR2DS4 /// KIR3DL3 /// KIR3DL3 /// KIR3DS1 (11738374_at) / Fold change /veh KIR2DL2 /// KIR2DL4 /// KIR2DL5A /// KIR2DL5B /// KIR2DS1 /// KIR2DS2 /// KIR2DS3 /// KIR2DS4 /// KIR3DL3 /// KIR3DL3 /// KIR3DS1 (11738374_at) / RFU C1QL1 (11718748_at) / Fold change /veh C1QL1 (11718748_at) / RFU TMPRSS4 (11747572_a_at) / Fold change /veh TMPRSS4 (11747572_a_at) / RFU HAMP (11756126_x_at) / Fold change /veh HAMP (11756126_x_at) / RFU RNFT2 (11725882_a_at) / Fold change /veh RNFT2 (11725882_a_at) / RFU NR4A2 (11747474_a_at) / Fold change /veh NR4A2 (11747474_a_at) / RFU ABCC12 (11746883_a_at) / Fold change /veh ABCC12 (11746883_a_at) / RFU TMEM136 (11760407_x_at) / Fold change /veh TMEM136 (11760407_x_at) / RFU CLDN22 /// WWC2 (11732394_at) / Fold change /veh CLDN22 /// WWC2 (11732394_at) / RFU HLA-DPB1 (11760878_x_at) / Fold change /veh HLA-DPB1 (11760878_x_at) / RFU SPINT1 (11716480_a_at) / Fold change /veh SPINT1 (11716480_a_at) / RFU GAP43 (11754022_s_at) / Fold change /veh GAP43 (11754022_s_at) / RFU A4GNT (11735810_at) / Fold change /veh A4GNT (11735810_at) / RFU PRB3 (11715151_x_at) / Fold change /veh PRB3 (11715151_x_at) / RFU TUBB4B (11761932_at) / Fold change /veh TUBB4B (11761932_at) / RFU CAPN14 (11732068_a_at) / Fold change /veh CAPN14 (11732068_a_at) / RFU TMCC2 (11721928_a_at) / Fold change /veh TMCC2 (11721928_a_at) / RFU IRGQ (11745062_a_at) / Fold change /veh IRGQ (11745062_a_at) / RFU FAM174B (11720279_a_at) / Fold change /veh FAM174B (11720279_a_at) / RFU TMPRSS4 (11748680_a_at) / Fold change /veh TMPRSS4 (11748680_a_at) / RFU FAM212B (11763350_a_at) / Fold change /veh FAM212B (11763350_a_at) / RFU PLEKHG5 (11743358_a_at) / Fold change /veh PLEKHG5 (11743358_a_at) / RFU ZSCAN30 (11745921_a_at) / Fold change /veh ZSCAN30 (11745921_a_at) / RFU CMKLR1 (11741424_a_at) / Fold change /veh CMKLR1 (11741424_a_at) / RFU LOC101060620 /// MAPK8IP1 (11723275_at) / Fold change /veh LOC101060620 /// MAPK8IP1 (11723275_at) / RFU SPTSSB (11747773_x_at) / Fold change /veh SPTSSB (11747773_x_at) / RFU PRSS12 (11739890_at) / Fold change /veh PRSS12 (11739890_at) / RFU BIN1 (11741810_x_at) / Fold change /veh BIN1 (11741810_x_at) / RFU WNT11 (11732464_a_at) / Fold change /veh WNT11 (11732464_a_at) / RFU C10orf10 (11716521_a_at) / Fold change /veh C10orf10 (11716521_a_at) / RFU C5orf56 (11738089_at) / Fold change /veh C5orf56 (11738089_at) / RFU CYB561 (11721691_x_at) / Fold change /veh CYB561 (11721691_x_at) / RFU ANKRD19P (11752326_a_at) / Fold change /veh ANKRD19P (11752326_a_at) / RFU OR2T12 /// OR2T33 /// OR2T8 (11738714_s_at) / Fold change /veh OR2T12 /// OR2T33 /// OR2T8 (11738714_s_at) / RFU VCAN (11748164_a_at) / Fold change /veh VCAN (11748164_a_at) / RFU JSRP1 (11732532_at) / Fold change /veh JSRP1 (11732532_at) / RFU KRTAP10-11 (11738290_x_at) / Fold change /veh KRTAP10-11 (11738290_x_at) / RFU MYO3A (11730013_a_at) / Fold change /veh MYO3A (11730013_a_at) / RFU EBF3 (11725865_a_at) / Fold change /veh EBF3 (11725865_a_at) / RFU CAMK2N1 (11719241_x_at) / Fold change /veh CAMK2N1 (11719241_x_at) / RFU C5orf56 (11738088_a_at) / Fold change /veh C5orf56 (11738088_a_at) / RFU OLFML3 (11715873_a_at) / Fold change /veh OLFML3 (11715873_a_at) / RFU LOC100653217 /// NTM (11731650_a_at) / Fold change /veh LOC100653217 /// NTM (11731650_a_at) / RFU MAPK11 (11762145_a_at) / Fold change /veh MAPK11 (11762145_a_at) / RFU FIZ1 (11724087_x_at) / Fold change /veh FIZ1 (11724087_x_at) / RFU OASL (11726364_x_at) / Fold change /veh OASL (11726364_x_at) / RFU SOX15 (11748057_x_at) / Fold change /veh SOX15 (11748057_x_at) / RFU CD79A (11719716_a_at) / Fold change /veh CD79A (11719716_a_at) / RFU HIST1H1D (11736915_at) / Fold change /veh HIST1H1D (11736915_at) / RFU CASKIN2 (11723855_a_at) / Fold change /veh CASKIN2 (11723855_a_at) / RFU LOC730098 (11760151_x_at) / Fold change /veh LOC730098 (11760151_x_at) / RFU OR4N2 (11742367_at) / Fold change /veh OR4N2 (11742367_at) / RFU PRRT2 (11749266_a_at) / Fold change /veh PRRT2 (11749266_a_at) / RFU SNX32 (11753110_a_at) / Fold change /veh SNX32 (11753110_a_at) / RFU CDHR5 (11726645_a_at) / Fold change /veh CDHR5 (11726645_a_at) / RFU RCAN1 (11760418_a_at) / Fold change /veh RCAN1 (11760418_a_at) / RFU FAM167A (11723789_a_at) / Fold change /veh FAM167A (11723789_a_at) / RFU FAM26E (11764081_at) / Fold change /veh FAM26E (11764081_at) / RFU ISYNA1 (11749810_s_at) / Fold change /veh ISYNA1 (11749810_s_at) / RFU ACY1 (11761880_at) / Fold change /veh ACY1 (11761880_at) / RFU 11764098_at / Fold change /veh 11764098_at / RFU SAMD14 (11745864_x_at) / Fold change /veh SAMD14 (11745864_x_at) / RFU NPB (11741838_a_at) / Fold change /veh NPB (11741838_a_at) / RFU TMPRSS6 (11731388_a_at) / Fold change /veh TMPRSS6 (11731388_a_at) / RFU KRTAP10-2 (11738614_at) / Fold change /veh KRTAP10-2 (11738614_at) / RFU ARHGAP8 /// PRR5-ARHGAP8 (11727945_x_at) / Fold change /veh ARHGAP8 /// PRR5-ARHGAP8 (11727945_x_at) / RFU KRTAP5-7 /// NADSYN1 (11734609_at) / Fold change /veh KRTAP5-7 /// NADSYN1 (11734609_at) / RFU RASL12 (11751679_a_at) / Fold change /veh RASL12 (11751679_a_at) / RFU CDKN2B (11736163_a_at) / Fold change /veh CDKN2B (11736163_a_at) / RFU PRF1 (11729649_at) / Fold change /veh PRF1 (11729649_at) / RFU, ZNF638 /// ZNF638-IT1 / Fold change vs veh, ZNF638 /// ZNF638-IT1 / RFU, PANK3 / Fold change vs veh, PANK3 / RFU, SH3YL1 / Fold change vs veh, SH3YL1 / RFU, ZEB2 / Fold change vs veh, ZEB2 / RFU, NRIP1 / Fold change vs veh, NRIP1 / RFU, PTTG1IP / Fold change vs veh, PTTG1IP / RFU, CAPN2 / Fold change vs veh, CAPN2 / RFU, MED14 / Fold change vs veh, MED14 / RFU, SNORA58 / Fold change vs veh, SNORA58 / RFU, C1orf63 / Fold change vs veh, C1orf63 / RFU, LRRFIP1 / Fold change vs veh, LRRFIP1 / RFU, NDUFAF7 / Fold change vs veh, NDUFAF7 / RFU, SLC12A2 / Fold change vs veh, SLC12A2 / RFU, IBTK / Fold change vs veh, IBTK / RFU, ESF1 / Fold change vs veh, ESF1 / Fold change vs veh, TMEM50B / RFU, TAOK1 / Fold change vs veh, TAOK1 / RFU, ACBD3 / Fold change vs veh, ACBD3 / RFU, TMA16 / Fold change vs veh, TMA16 / RFU, RWDD3 / Fold change vs veh, RWDD3 / RFU, BCAT1 / Fold change vs veh, BCAT1 / RFU, EDEM3 / Fold change vs veh, EDEM3 / RFU, TMEM33 / Fold change vs veh, TMEM33 / RFU, WDR75 / Fold change vs veh, WDR75 / RFU, AHCTF1 / Fold change vs veh, AHCTF1 / RFU, TFRC / Fold change vs veh, TFRC / RFU, ZDHHC17 / Fold change vs veh, ZDHHC17 / RFU, NOM1 / Fold change vs veh, NOM1 / RFU, ARL8B / Fold change vs veh, ARL8B / RFU, ZBTB11 / Fold change vs veh, ZBTB11 / RFU, TAMM41 / Fold change vs veh, TAMM41 / RFU, KIAA1704 /// LOC100996395 / Fold change vs veh, KIAA1704 /// LOC100996395 / RFU, ING1 / Fold change vs veh, ING1 / RFU, TRMT61B / Fold change vs veh, TRMT61B / RFU, FUBP3 / Fold change vs veh, FUBP3 / RFU, TP53 / Fold change vs veh, TP53 / RFU, TNKS2 / Fold change vs veh, TNKS2 / RFU, ZFP14 / Fold change vs veh, ZFP14 / RFU, ACTR2 / Fold change vs veh, ACTR2 / RFU, PPP3R1 / Fold change vs veh, PPP3R1 / RFU, PIK3R1 / Fold change vs veh, PIK3R1 / RFU, HNRNPA1 / Fold change vs veh, HNRNPA1 / RFU, RNF170 / Fold change vs veh, RNF170 / RFU, ZNF28 / Fold change vs veh, ZNF28 / RFU, RNGTT / Fold change vs veh, RNGTT / RFU, OGT / Fold change vs veh, OGT / RFU, BRD1 / Fold change vs veh, BRD1 / RFU, MARS / Fold change vs veh, MARS / RFU, ZNF655 / Fold change vs veh, ZNF655 / RFU, FAHD1 / Fold change vs veh, FAHD1 / RFU, BDP1 / Fold change vs veh, BDP1 / RFU, LRRCC1 / Fold change vs veh, LRRCC1 / RFU, ARID1A / Fold change vs veh, ARID1A / RFU, ZNF146 / Fold change vs veh, ZNF146 / RFU, ZNF330 / Fold change vs veh, ZNF330 / RFU, GPN3 / Fold change vs veh, GPN3 / RFU, C9orf123 / Fold change vs veh, C9orf123 / RFU, N4BP2L2 / Fold change vs veh, N4BP2L2 / RFU, ARFIP1 / Fold change vs veh, ARFIP1 / RFU, FAM179B / Fold change vs veh, FAM179B / RFU, BCL10 / Fold change vs veh, BCL10 / RFU, UHRF1BP1L / Fold change vs veh, UHRF1BP1L / RFU, BET1 / Fold change vs veh, BET1 / RFU, CNOT2 / Fold change vs veh, CNOT2 / RFU, ZNF268 / Fold change vs veh, ZNF268 / Fold change vs veh, ZNF507 / RFU, DGCR2 / Fold change vs veh, DGCR2 / RFU, WDSUB1 / Fold change vs veh, WDSUB1 / Fold change vs veh, HSP90B1 /// MIR3652 / RFU, ADSS / Fold change vs veh, ADSS / RFU, GK / Fold change vs veh, GK / RFU, ZNF148 / Fold change vs veh, ZNF148 / RFU, TAF9 / Fold change vs veh, TAF9 / RFU, SLC1A5 / Fold change vs veh, SLC1A5 / RFU, SLMO2 / Fold change vs veh, SLMO2 / RFU, ABCC4 / Fold change vs veh, ABCC4 / RFU, LOC101060439 /// RAP1B / Fold change vs veh, LOC101060439 /// RAP1B / RFU, RFX7 / Fold change vs veh, RFX7 / RFU, GTPBP10 / Fold change vs veh, GTPBP10 / RFU, CNEP1R1 / Fold change vs veh, CNEP1R1 / RFU, BIVM-ERCC5 /// ERCC5 / Fold change vs veh, BIVM-ERCC5 /// ERCC5 / RFU, ILF3 / Fold change vs veh, ILF3 / RFU 11762660_at / Fold change /veh 11762660_at / RFU VCAN (11757783_s_at) / Fold change /veh VCAN (11757783_s_at) / RFU DDX43 (11728927_at) / Fold change /veh DDX43 (11728927_at) / RFU KRT8 (11758188_x_at) / Fold change /veh KRT8 (11758188_x_at) / RFU NKD1 (11759106_at) / Fold change /veh NKD1 (11759106_at) / RFU SRD5A1 (11742802_a_at) / Fold change /veh SRD5A1 (11742802_a_at) / RFU TPSAB1 /// TPSB2 (11721975_s_at) / Fold change /veh TPSAB1 /// TPSB2 (11721975_s_at) / RFU GSTM3 (11746129_a_at) / Fold change /veh GSTM3 (11746129_a_at) / RFU IL23R (11737362_x_at) / Fold change /veh IL23R (11737362_x_at) / RFU TMEM51 (11727254_a_at) / Fold change /veh TMEM51 (11727254_a_at) / RFU PIWIL2 (11732686_x_at) / Fold change /veh PIWIL2 (11732686_x_at) / RFU ORM1 (11744905_x_at) / Fold change /veh ORM1 (11744905_x_at) / RFU CCDC152 (11743942_at) / Fold change /veh CCDC152 (11743942_at) / RFU ECM1 (11717891_a_at) / Fold change /veh ECM1 (11717891_a_at) / RFU IL23R (11748794_a_at) / Fold change /veh IL23R (11748794_a_at) / RFU TNFAIP8L3 (11732012_x_at) / Fold change /veh TNFAIP8L3 (11732012_x_at) / RFU MBOAT4 (11741988_at) / Fold change /veh MBOAT4 (11741988_at) / RFU 11764193_at / Fold change /veh 11764193_at / RFU TMEM53 (11763286_at) / Fold change /veh TMEM53 (11763286_at) / RFU MAGEB2 (11727129_at) / Fold change /veh MAGEB2 (11727129_at) / RFU TMEM200A (11744735_a_at) / Fold change /veh TMEM200A (11744735_a_at) / RFU CCDC152 (11751479_a_at) / Fold change /veh CCDC152 (11751479_a_at) / RFU FAM211A (11726209_a_at) / Fold change /veh FAM211A (11726209_a_at) / RFU RGS16 (11746705_a_at) / Fold change /veh RGS16 (11746705_a_at) / RFU VCAN (11755009_s_at) / Fold change /veh VCAN (11755009_s_at) / RFU RHOB (11743442_s_at) / Fold change /veh RHOB (11743442_s_at) / RFU RGS16 (11720943_a_at) / Fold change /veh RGS16 (11720943_a_at) / RFU RGS16 (11720944_at) / Fold change /veh RGS16 (11720944_at) / RFU, VPS4B / Fold change vs veh, VPS4B / RFU, CREB1 / Fold change vs veh, CREB1 / RFU, DNAJC13 / Fold change vs veh, DNAJC13 / RFU, GNAQ / Fold change vs veh, GNAQ / RFU, CDK5R1 / Fold change vs veh, CDK5R1 / RFU, ZRANB3 / Fold change vs veh, ZRANB3 / RFU, CUL4A / Fold change vs veh, CUL4A / RFU, CCNY / Fold change vs veh, CCNY / RFU, UFL1 / Fold change vs veh, UFL1 / RFU, COG3 / Fold change vs veh, COG3 / RFU, DIAPH2 / Fold change vs veh, DIAPH2 / RFU, SKA2 / Fold change vs veh, SKA2 / RFU, AFF3 / Fold change vs veh, AFF3 / RFU, LMF1 / Fold change vs veh, LMF1 / RFU, IPO11 / Fold change vs veh, IPO11 / RFU, DFFB / Fold change vs veh, DFFB / RFU, FOXP1 / Fold change vs veh, FOXP1 / RFU, CARD8 / Fold change vs veh, CARD8 / RFU, STRN3 / Fold change vs veh, STRN3 / RFU, ADK / Fold change vs veh, ADK / RFU, RASSF2 / Fold change vs veh, RASSF2 / RFU, WIPF1 / Fold change vs veh, WIPF1 / RFU, LARP1B / Fold change vs veh, LARP1B / RFU, RASA1 / Fold change vs veh, RASA1 / RFU, RB1 / Fold change vs veh, RB1 / RFU, PPFIA1 / Fold change vs veh, PPFIA1 / RFU, MAT2A / Fold change vs veh, MAT2A / RFU, CCT5 / Fold change vs veh, CCT5 / RFU, WDR92 / Fold change vs veh, WDR92 / RFU, CUX1 / Fold change vs veh, CUX1 / RFU, TTC7A / Fold change vs veh, TTC7A / RFU, TMEM135 / Fold change vs veh, TMEM135 / RFU, DEPTOR / Fold change vs veh, DEPTOR / RFU, CPM / Fold change vs veh, CPM / RFU, DNAJB6 / Fold change vs veh, DNAJB6 / RFU, CACNA2D3 / Fold change vs veh, CACNA2D3 / RFU, DTX4 / Fold change vs veh, DTX4 / RFU, TFCP2 / Fold change vs veh, TFCP2 / RFU, GMCL1 /// GMCL1P1 / Fold change vs veh, GMCL1 /// GMCL1P1 / RFU, AEBP2 / Fold change vs veh, AEBP2 / RFU, SNHG1 /// SNORD22 /// SNORD25 /// SNORD26 /// SNORD27 /// SNORD28 /// SNORD29 /// SNORD31 / Fold change vs veh, SNHG1 /// SNORD22 /// SNORD25 /// SNORD26 /// SNORD27 /// SNORD28 /// SNORD29 /// SNORD31 / Fold change (Aza/veh), C12orf56 (ProbeSet 11735607_a_at) / Fold change (ACY-1035/veh), C12orf56 (ProbeSet 11735607_a_at) / Fold change (Aza/veh), FGFR1OP (ProbeSet 11751329_s_at) / Fold change (ACY-1035/veh), FGFR1OP (ProbeSet 11751329_s_at) / Fold change (Aza/veh), VPS36 (ProbeSet 11739960_a_at) / Fold change (ACY-1035/veh), VPS36 (ProbeSet 11739960_a_at) / RFU SYPL1 (11715823_x_at) / Fold change /veh SYPL1 (11715823_x_at) / RFU IGFBP7 (11715501_s_at) / Fold change /veh IGFBP7 (11715501_s_at) / RFU REEP3 (11722064_at) / Fold change /veh REEP3 (11722064_at) / RFU IGLL1 (11728026_x_at) / Fold change /veh IGLL1 (11728026_x_at): dose or concentration left out as unconfirmed
Details: ProbeSet 11745428_a_at; LIST D

Nc1ccc(-c2cccs2)cc1NC(=O)c1ccc2c(c1)cc(C1CC1)n2CCN1CCOCC1 [ACY-1035]
Fold change vs veh, DFFB: 0.87
